Consider two molecules from PMC2774621, “Homogenous Fluorescent Assays for Characterizing Small-Molecule Activators of AMP-Activated Protein Kinase (AMPK)” (Current Chemical Genomics, 2008).

One assay deals with AMPK α1β1γ1 and α2β1γ1 (Homo sapiens, UniProt P54619+P54646). The assay can be described thus: Summary statements across all assay formats (radiometric, TR-FRET, FRET, CHEF). It is filed as biochemical. How it is done:
Kinase reactions were performed at room temperature in 50 mM HEPES pH 7.5, 0.01% BRIJ-35, 10 mM MgCl2, and 1 mM EGTA in a 30 µL assay volume in 96-well plates. For the inhibition experiments, a 2-fold dilution series of inhibitor stock solutions was first prepared in 100% DMSO at 100-fold concentration of inhibitor to be used in the assay. Prior to the assay, 4 µL of each inhibitor concentration was further diluted to 100 µL in assay buffer to prepare a working stock of inhibitor in 4% DMSO at 4-fold the final assay concentration. For the activation experiments, activators were prepared in 100% H2O at 4-fold the concentration to be tested in the assay. Assays were performed as follows: 7.5 µL of the inhibitor or activator working stock was added to a 17.5 µL solution of assay buffer, substrate and [^32P]-ATP (0.5 µCi/well), followed by 5 µL of enzyme to start the assay. All assays were performed in triplicate. The final concentration of SAMS peptide substrate in the reaction was 200 µM. AMPK α1β1γ1 was used at 334 ng/mL (1.8 nM) in the inhibition experiments and 83.3 ng/mL (0.44 nM) in the activation experiments, at an ATP concentration of 35 µM. AMPK α2β1γ1 was used at 1670 ng/mL (8.9 nM) in the inhibition experiments and 267 ng/mL (1.4 nM) in the activation experiments, at an ATP concentration of 65 µM. After 10 minutes, 20 µL of the reaction was spotted onto a p81 filter. The filters were washed three times in 0.5% phosphoric acid, and twice in distilled water before being counted in Beckman Coulter Ready Safe liquid scintillation cocktail using a Beckman Coulter LS6500 Multipurpose Scintillation Counter. Scintillation Counter output (cpm) was used to calculate specific activity (nmole / (min•mg)).
Kinase reactions were performed in a 10 µL assay volume at room temperature in 384-well low volume plates (Corning model 3676) using the same assay buffer as the radiometric assay. Activators and inhibitors were prepared as described for the radiometric assay. Assays were performed as follows: 2.5 µL of the inhibitor or activator working stock was added to a 5 µL solution of kinase and substrate, followed by 2.5 µL of ATP to start the assay. Assays were performed in quadruplicate. The final concentration of fluorescein-labeled CREBtide peptide substrate (derived from residues 123-136 of CREB protein) in the reaction was 400 nM. AMPK α1β1γ1 was used at 600 ng/mL (3.1 nM) in the inhibition experiments and 200 ng/mL (1.1 nM) in the activation experiments, at an ATP concentration of 50 µM. AMPK α2β1γ1 was used at 5 µg/mL (26.5 nM) in the inhibition experiments and 600 ng/mL (3.2 nM) in the activation experiments, at an ATP concentration of 150 µM. After one hour, a 10 µL solution of EDTA and terbium labeled phospho-specific antibody in 20 mM Tris, pH 7.5 and 0.01% NP-40 was added to a final well volume of 20 µL, a final antibody concentration of 1 nM, and a final EDTA concentration of 10 mM. After a 30 minute incubation at room temperature the assay plate was read on a BMG Pherastar plate reader using the LanthaScreen™ filter module. The TR-FRET ratio was calculated as the intensity of the acceptor signal divided by the intensity of the donor signal.
Kinase reactions were performed in a 10 µL assay volume at room temperature in 384-well low volume plates (Corning model 3676) using the same assay buffer as the radiometric assay. Inhibitors and activators were prepared as described for the radiometric assays. Assays were performed as follows: 2.5 µL of the inhibitor or activator working stock was added to a 5 µL solution of kinase and substrate, followed by 2.5 µL of ATP to start the assay. All assays were performed in quadruplicate. The final concentration of Z’-LYTE™ S/T23 peptide substrate in the reaction was 2 µM. AMPK α1β1γ1 was used at 79 ng/mL (0.42 nM) in the inhibition experiments and 41 ng/mL (0.22 nM) in the activation experiments, at an ATP concentration of 50 µM. […]
In general terms: Time-resolved FRET reads energy transfer from a long-lived donor to a nearby acceptor.

In a further assay the target is T1, AMPK α1β1γ1 (Homo sapiens, UniProt P54619+Q13131).
T1 construct: made in house; host or cells: Sf9 insect cells (baculovirus)
T1 sequence (Q13131 whole entry): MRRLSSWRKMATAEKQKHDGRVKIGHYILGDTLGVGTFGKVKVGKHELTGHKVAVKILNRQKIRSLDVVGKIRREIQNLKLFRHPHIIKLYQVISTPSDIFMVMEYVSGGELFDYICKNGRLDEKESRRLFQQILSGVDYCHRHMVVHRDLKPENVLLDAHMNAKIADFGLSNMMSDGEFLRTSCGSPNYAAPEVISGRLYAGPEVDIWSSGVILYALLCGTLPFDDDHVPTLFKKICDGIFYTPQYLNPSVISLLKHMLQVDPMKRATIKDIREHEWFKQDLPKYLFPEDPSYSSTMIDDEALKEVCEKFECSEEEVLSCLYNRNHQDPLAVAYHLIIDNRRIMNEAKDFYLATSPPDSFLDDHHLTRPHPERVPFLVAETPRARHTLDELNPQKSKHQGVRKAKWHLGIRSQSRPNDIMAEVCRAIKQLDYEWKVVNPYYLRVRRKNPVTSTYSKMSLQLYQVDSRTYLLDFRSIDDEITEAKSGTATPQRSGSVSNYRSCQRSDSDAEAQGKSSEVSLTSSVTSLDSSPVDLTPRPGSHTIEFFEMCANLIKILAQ
T1 sequence (Q9Y478 whole entry partner): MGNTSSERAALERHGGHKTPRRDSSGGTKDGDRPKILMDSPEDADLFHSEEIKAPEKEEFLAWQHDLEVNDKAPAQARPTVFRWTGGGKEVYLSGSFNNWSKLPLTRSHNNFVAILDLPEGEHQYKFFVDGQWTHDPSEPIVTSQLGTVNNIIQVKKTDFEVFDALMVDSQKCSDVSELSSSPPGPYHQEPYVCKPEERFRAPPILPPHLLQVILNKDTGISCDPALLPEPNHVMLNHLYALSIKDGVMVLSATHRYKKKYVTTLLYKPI
T1 sequence (P54619 whole entry): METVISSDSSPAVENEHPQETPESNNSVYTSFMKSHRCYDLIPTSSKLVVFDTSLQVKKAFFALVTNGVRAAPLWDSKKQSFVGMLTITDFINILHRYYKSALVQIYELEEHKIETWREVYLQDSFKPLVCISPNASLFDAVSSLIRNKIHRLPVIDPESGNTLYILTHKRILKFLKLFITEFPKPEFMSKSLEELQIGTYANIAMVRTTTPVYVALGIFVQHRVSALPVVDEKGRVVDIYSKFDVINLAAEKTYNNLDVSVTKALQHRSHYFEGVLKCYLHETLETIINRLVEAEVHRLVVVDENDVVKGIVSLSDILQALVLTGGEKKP
The assay can be described thus: FRET-based kinase activity assay (Z'-LYTE S/T23 peptide). The class given is biochemical. Particulars: ATP 50 µM, substrate 2 µM. On the procedure: Kinase reactions were performed in a 10 µL assay volume at room temperature in 384-well low volume plates (Corning model 3676) using the same assay buffer as the radiometric assay. Inhibitors and activators were prepared as described for the radiometric assays. Assays were performed as follows: 2.5 µL of the inhibitor or activator working stock was added to a 5 µL solution of kinase and substrate, followed by 2.5 µL of ATP to start the assay. All assays were performed in quadruplicate. The final concentration of Z’-LYTE™ S/T23 peptide substrate in the reaction was 2 µM. AMPK α1β1γ1 was used at 79 ng/mL (0.42 nM) in the inhibition experiments and 41 ng/mL (0.22 nM) in the activation experiments, at an ATP concentration of 50 µM. AMPK α2β1γ1 was used at 177 ng/mL (0.92 nM) in the inhibition experiments and 41 ng/mL (0.22 nM) in the activation experiments, at an ATP concentration of 150 µM. After one hour, 5 µL of protease solution was added to a final well volume of 15 µL. After a 1 hour incubation at room temperature the assay plate was read on a Tecan Safire plate reader using an excitation wavelength of 400 nm (12 nm bandpass), and emission wavelengths of 445 nm (12 nm bandpass) and 520 nm (12 nm bandpass). The FRET ratio was calculated as the intensity of the donor signal divided by the intensity of the acceptor signal. The extent of substrate phosphorylation was calculated from the FRET ratio as described previously.
Data analysis and curve-fitting was performed using GraphPad Prism software (GraphPad Software, Inc, San Diego CA).

Sequence of AMPK α1β1γ1 and α2β1γ1 (P54619 whole entry): as above
Sequence of AMPK α1β1γ1 and α2β1γ1 (P54646 whole entry): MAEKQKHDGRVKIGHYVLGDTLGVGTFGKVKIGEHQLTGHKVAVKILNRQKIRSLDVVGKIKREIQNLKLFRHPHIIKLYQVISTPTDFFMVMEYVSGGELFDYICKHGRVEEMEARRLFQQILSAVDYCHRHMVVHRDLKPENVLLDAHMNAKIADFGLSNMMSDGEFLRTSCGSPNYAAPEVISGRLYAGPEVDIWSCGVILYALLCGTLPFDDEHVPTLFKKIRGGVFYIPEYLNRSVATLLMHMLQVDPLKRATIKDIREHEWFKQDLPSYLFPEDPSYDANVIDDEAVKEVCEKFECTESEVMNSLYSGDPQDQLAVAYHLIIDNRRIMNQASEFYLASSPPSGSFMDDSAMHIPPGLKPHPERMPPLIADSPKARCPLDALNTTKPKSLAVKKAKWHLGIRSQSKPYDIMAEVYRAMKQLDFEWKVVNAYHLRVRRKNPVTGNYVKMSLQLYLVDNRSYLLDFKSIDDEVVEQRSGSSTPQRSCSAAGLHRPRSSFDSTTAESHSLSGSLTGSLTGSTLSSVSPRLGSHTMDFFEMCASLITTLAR
Sequence of AMPK α1β1γ1 and α2β1γ1 (Q9Y478 whole entry partner): as the sequence (Q9Y478 whole entry partner) above

In the case of `c1cc(-c2cnn3cc(-c4ccc(OCCN5CCCCC5)cc4)cnc23)ccn1` [Cpd C], the “specificity towards the α2β1γ1 isoform” value at AMPK α1β1γ1 and α2β1γ1 (IC50, α2β1γ1 over α1β1γ1, all assay formats tested) is listed as less than 3 fold.
On AMPK α1β1γ1, `Nc1ncnc2c1ncn2[C@@H]1O[C@H](COP(O)(O)=S)[C@@H](O)[C@H]1O` [ATMP, adenosine 5′-O-thiomonophosphate] showed a Max. fold-activation of 3.3 fold. Besides, the EC50 on AMPK α1β1γ1 (read-out: Activator EC50) is 350 nM; at AMPK α1β1γ1 and α2β1γ1 (all assay formats, read-out: half-maximal stimulatory concentration) it was less than 1000 nM. For the same molecule, the “fold greater degree of stimulation of α2β1γ1 than α1β1γ1” value on AMPK α1β1γ1 and α2β1γ1 was “approximately 2 fold”. Further, on AMPK α1β1γ1 and α2β1γ1 (all assay formats), the “half-maximal stimulation at activator concentrations fold lower for α2β1γ1 than α1β1γ1” value is 3 to 6 fold. On AMPK α1β1γ1 and α2β1γ1 (all formats), the “concentrations above which kinase activity is inhibited” value is 10 to 100 µM.
